In patent publication US20130296430A1, “COMPOSITIONS AND METHODS FOR TREATING AUTISM AND AUTISM SPECTRUM DISORDER” (priority 2012, published 2013):
“Also recorded” adds a separate entry of the source.

Tests used:
children with autism [1] = assay: 12-week placebo-controlled study of NAC: Social Responsiveness Scale (SRS); assay type: in vivo, human
From the text: The Social Responsiveness Scale (SRS) (Constantino, J. et al., J Dev Behav Pediatr, 21:2-11 (2000); Constantino, J. et al., J Autism Dev Disord., 3:427-433 (2003)) is a norm-referenced, 65-item parent report questionnaire developed to measure social behaviors, including social awareness, social information processing, reciprocal social communication, and social anxiety, in both clinical and non-clinical populations. It is designed for use with children ages 4 through 18, and more recently, a special version of the SRS has been developed for preschoolers (Pine, E. et al., Autism, 10:344-352 (2006)). The SRS items measure the Autistic Spectrum Disorder (ASD) symptoms in the domains of social awareness, social information processing, reciprocal social communication, social anxiety/avoidance, and stereotypic behavior/restricted interests. Each item is scored from 1 (not true) to 4 (almost always true). Scores are obtained for five treatment subscales: Social Awareness (e.g., “Is aware of what others are thinking or feeling”), Social Cognition (e.g., “Doesn't recognize when others are trying to take advantage of him or her”), Social Communication (e.g., “Avoids eye contact or has unusual eye contact”), Social Motivation (e.g., “Would rather be alone than with others”), and Autistic Mannerisms (e.g., “Has an unusually narrow range of interests”). The SRS summary score was continuously distributed within each group and minimally correlated with Intelligent Quotient (IQ). High scores indicate more severe behavioral symptoms.
(§1) A 12-week, double-blind randomized, placebo-controlled study of NAC in children with autism was conducted in the Autism & Developmental Disabilities Clinic in the Division of Child & Adolescent Psychiatry at Stanford University Medical Center. The recruitment period started in March 2009 and ended in September 2010. Subjects with and without mental retardation were included. After obtaining informed consent, subjects were screened and inclusion and exclusion criteria were assessed. No changes in eligibility criteria were applied throughout the study. This investigation was approved by the institutional review board at Stanford University School of Medicine. An investigational new drug application (IND#100905) was filed with the Food and Drug Administration, and the study was registered in National Institutes of Health at ClinicalTrials.gov (identifier number NCT00627705).
(§2) After the screening phase, baseline measures were obtained from subjects continuing to meet inclusion and exclusion criteria. Subjects were then randomized to either placebo or active based on age and gender. As NAC is a nutritional supplement, the quality control is predictably variable and therefore purity is not as stringent as prescription medications. Therefore, in the present study, the stability of the compound was ascertained and the integrity of the active agent was protected by packaging each NAC doses in individual pockets. The active compound and matching placebo were provided by BioAdvantex Pharma, Inc. (Mississauga, Ontario, Canada). […] Subjects randomized to the active drug were initiated at the dose of 900 mg every day for the first 4 weeks, then 900 mg twice daily for 4 weeks and 900 mg three times daily for 4 weeks. (This dose selection was based on previously published studies for other psychiatric conditions (Grant, J. et al., Arch Gen Psychiatry, 66:468-475 (2009); Berk, M. et al., Biol Psychiatry, 64:361-368 (2008); Berk, M. et al., Bio Psychiatry, 64:468-475 (2008)) and the previous experience of our group in studies of children with cystic fibrosis). Alternatively, subjects were initiated at the dose of 900 mg per day, 1,800 mg per day, or 2,700 mg per day of NAC. Alternatively, the subjects were initiated at the dose ranging from 900 mg per day to 2,700 mg per day of NAC.
If a subject could not tolerate a specific dose, s/he would be maintained at the highest tolerated dose. […]

children with autism [2] = assay: 12-week double-blind randomized placebo-controlled study of NAC: Aberrant Behavior Checklist (ABC); assay type: in vivo, human
From the text: The Aberrant Behavior Checklist (ABC) is a standardized scale comprising 58 items for assessing problem behavior in subjects with mental retardation and developmental disabilities (Aman, M. et al., Am J Ment Defic. 89:492-502 (1985)). The checklist is empirically derived from ratings on approximately 1000 subjects, and the items resolve into five subscales: irritability, lethargy/social withdrawal, stereotypic behavior, hyperactivity, and inappropriate speech. High scores indicate more severe behavioral symptoms.
as §1, §2
If a subject could not tolerate a specific dose, s/he would be maintained at the highest tolerated dose. Subjects were evaluated at baseline, week 4, week 8 and week 12. The Aberrant Behavioral Checklist (ABC) (Aman, M. et al., Am J Ment Defic. 89:492-502 (1985)), the Clinical Global Impressions (CGI) (Guy, W., ECDEU Assessment Manual for Psychopharmacology, Rockville, Md., U.S. Department of Health, Education, and Welfare (1976)), and the Dosage Record and Treatment Emergent Symptom Scale (DOTES) (Guy, W., 1976, ECDEU Assessment Manual for Psychopharmacology, Rockville, Md., U.S. Department of Health, Education, and Welfare) were obtained in each visit. Additional secondary measures were obtained at baseline and at week 12 and included the social responsiveness scale (SRS) (Constantino, J. et al., J. Dev Behav Pediatr., 21:2-11 (2000); Constantino, J. et al., J Autism Dev Disord., 33:427-433 (2003)), and the repetitive behavior scale-revised (RBS-R) (Bodfish, J. et al., The Repetitive Behavior Scale: A test manual (1998)). […]

[3] = Baseline (before treatment), NAC group n = 15
[4] = all randomized participants, p>0.100
[5] = standardized mean difference NAC vs placebo at Week 12

CC(=O)N[C@@H](CS)C(=O)O [NAC, N-acetylcysteine]
SRS total, Mean (SD) (children with autism [1]; [3]): 111.9 (28.3) | SRS total, Mean (SD) (children with autism [1]; Week 12, NAC n = 14): 93.8 (26.7) | SRS-Total raw scores, treatment effect (children with autism [1]; all randomized participants, NAC vs placebo, p=0.141): did not significantly influence | SRS-Social Cognition sub-scale, treatment effect (children with autism [1]; all randomized participants, p=0.037, said to appear due to regression to the mean): significant improvements | SRS-Autism Mannerisms sub-scale, treatment effect (children with autism [1]; all randomized participants, p=0.045): significant improvements | any other SRS subscale, treatment effect (children with autism [1]; [4]): no significant treatment effects | SRS-Total scores, treatment effect (children with autism [1]; participants who completed the study (NAC N=13, placebo N=12), p=0.039): significantly improved | SRS total, Cohen's d (children with autism [1]; [5]): .14 | ABC hyperactivity, Mean (SD) (children with autism [2]; [3]): 23.4 (9.0) | ABC inappropriate speech, Mean (SD) (children with autism [2]; [3]): 4.9 (3.2) | ABC irritability, Mean (SD) (children with autism [2]; [3]): 16.9 (7.9) | ABC lethargy, Mean (SD) (children with autism [2]; [3]): 15.2 (9.5) | ABC stereotypy, Mean (SD) (children with autism [2]; [3]): 9.1 (5.5) | ABC total, Mean (SD) (children with autism [2]; [3]): 69.7 (24.7) | ABC hyperactivity, Mean (SD) (children with autism [2]; Week 12, NAC n = 14): 12.4 (11.4) | ABC inappropriate speech, Mean (SD) (children with autism [2]; Week 12, NAC n = 14): 2.5 (2.6) | ABC irritability, Mean (SD) (children with autism [2]; Week 12, NAC n = 14): 7.2 (5.7) | ABC lethargy, Mean (SD) (children with autism [2]; Week 12, NAC n = 14): 11.0 (9.4) | ABC stereotypy, Mean (SD) (children with autism [2]; Week 12, NAC n = 14): 5.6 (5.7) | ABC total, Mean (SD) (children with autism [2]; Week 12, NAC n = 14, 900 mg daily 4 wk, twice daily 4 wk, three times daily 4 wk, high scores = more severe): 38.7 (24.1) | ABC-Irritability, treatment effect (Group x Time) (children with autism [2]; all randomized participants, NAC vs placebo, effects beginning in week 4, continuing through week 8 and 12, p<0.001): significantly improved irritability; also recorded: significant behavioral improvements | ABC-Total, treatment effect (Group x Time) (children with autism [2]; all randomized participants, NAC vs placebo, from week 4 through week 12, p=0.010): significant effects; also recorded: significant behavioral improvements | ABC-Stereotypy, treatment effect (children with autism [2]; all randomized participants, NAC vs placebo, p=0.096): marginally significant improvement | ABC hyperactivity subscale, treatment effect (children with autism [2]; [4]): no significant treatment effects | ABC inappropriate speech subscale, treatment effect (children with autism [2]; [4]): no significant treatment effects | ABC lethargy subscale, treatment effect (children with autism [2]; [4]): no significant treatment effects | ABC inappropriate speech, Cohen's d (children with autism [2]; [5]): .35 | ABC irritability, Cohen's d (children with autism [2]; [5]): .72 | ABC lethargy, Cohen's d (children with autism [2]; [5]): −.32 | ABC stereotypy, Cohen's d (children with autism [2]; [5]): .37 | ABC total, Cohen's d (children with autism [2]; [5]): .63
